Data published in ChEMBL document CHEMBL1201862, “PubChem BioAssay data set” (2004).
“And” between values parts separate entries of the source, which are not always exact repeats. Equal values may be shown once. Values belong to the molecule of their own block, whether it stands above or below them. The source made the active and inactive calls.

Experiments:
[1] = biological target: T1, Heat shock factor protein 1 (Mus musculus, UniProt P38532); assay: decrease of HSF1-responsive luciferase luminescence – cell-based, NIH3T3, dose retest, confirmation (AID 2382); format: functional;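 also: NIH3T3 fibroblasts with HSF1-driven luciferase reporter stressed by proteasome inhibitor MG132; luminescence from HSF1-driven luciferase expression after 8 hours of MG132 stress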
T1 sequence (P38532 whole entry): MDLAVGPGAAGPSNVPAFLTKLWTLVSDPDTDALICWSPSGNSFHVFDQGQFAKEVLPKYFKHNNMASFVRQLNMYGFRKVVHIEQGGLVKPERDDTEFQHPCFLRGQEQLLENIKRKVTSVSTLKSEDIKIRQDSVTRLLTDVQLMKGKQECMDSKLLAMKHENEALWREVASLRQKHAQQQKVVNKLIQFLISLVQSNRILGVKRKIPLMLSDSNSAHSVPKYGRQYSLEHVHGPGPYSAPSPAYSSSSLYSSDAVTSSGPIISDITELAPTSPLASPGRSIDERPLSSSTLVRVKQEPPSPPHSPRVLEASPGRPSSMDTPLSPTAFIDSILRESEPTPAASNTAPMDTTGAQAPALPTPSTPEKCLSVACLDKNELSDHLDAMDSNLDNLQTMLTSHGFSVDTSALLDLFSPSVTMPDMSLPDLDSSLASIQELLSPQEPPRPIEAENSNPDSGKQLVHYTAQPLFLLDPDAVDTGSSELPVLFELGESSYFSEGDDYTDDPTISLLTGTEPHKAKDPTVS

[2] = biological target: Cytochrome P450 2C9 (Homo sapiens, UniProt P11712)
[3] = Trypanosoma cruzi growth suppression in host cells – NIH3T3 host cells, beta-gal luminescence, confirmation (AID 2044); format: functional, cell-based;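 also: intracellular parasites grown in NIH/3T3 mouse fibroblasts as host cells; luminescent beta-galactosidase reporter signal from transgenic T. cruzi replicating inside host cells; inhibitors lower the luminescence signal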
[4] = NIH3T3 cell viability loss – ATP luminescence, mouse fibroblasts, counter-screen, dose response (AID 2010); format: functional, cell-based;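 also: cells exposed to compound for about 90 hours before reading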
[5] = biological target: Cytochrome P450 2C19 (Homo sapiens, UniProt P33261); assay: Cytochrome panel assay with activity outcomes. Panel member name: p450-cyp2c19 Compounds with AC50 equal or less than 10 uM are considered active; format: functional
[6] = system: Streptococcus sp. 'group A'; assay: Streptococcus pyogenes SK(-)GAS viability under kanamycin – luminescence, BacTiterGlo, confirmation, counter-screen for streptokinase expression inhibitor project, dose response (AID 1900); format: functional, organism-based
[7] = system: Streptococcus; assay: GAS UMAA2166 growth inhibition – luminescence, BacTiterGlo, counter-screen for streptokinase expression inhibitor project, dose response (AID 1915); format: functional, organism-based;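 also: potency for reduction of bacterial viability or growth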
[8] = biological target: Cytochrome P450 2D6 (Homo sapiens, UniProt P10635);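 also: CYP2D6 member of a cytochrome P450 panel assay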
[9] = biological target: T2, Cytochrome P450 1A2 (Homo sapiens, UniProt P05177);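 also: PubChem cytochrome P450 panel assay, CYP1A2 panel member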
T2 sequence (P05177 whole entry): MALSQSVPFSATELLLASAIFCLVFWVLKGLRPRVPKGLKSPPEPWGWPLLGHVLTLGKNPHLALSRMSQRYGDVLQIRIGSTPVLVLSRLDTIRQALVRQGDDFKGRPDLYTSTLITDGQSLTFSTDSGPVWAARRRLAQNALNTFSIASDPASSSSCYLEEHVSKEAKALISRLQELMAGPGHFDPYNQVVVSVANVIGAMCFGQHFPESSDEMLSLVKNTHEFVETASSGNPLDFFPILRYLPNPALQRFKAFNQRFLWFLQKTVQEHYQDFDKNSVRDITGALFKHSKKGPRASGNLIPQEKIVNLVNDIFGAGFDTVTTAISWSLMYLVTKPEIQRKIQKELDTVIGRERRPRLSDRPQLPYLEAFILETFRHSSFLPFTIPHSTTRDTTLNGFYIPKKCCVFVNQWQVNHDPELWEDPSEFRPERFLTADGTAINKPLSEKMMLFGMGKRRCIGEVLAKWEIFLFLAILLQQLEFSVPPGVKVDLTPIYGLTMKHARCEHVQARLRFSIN

Chain of Cytochrome P450 2C19 (P33261 whole entry): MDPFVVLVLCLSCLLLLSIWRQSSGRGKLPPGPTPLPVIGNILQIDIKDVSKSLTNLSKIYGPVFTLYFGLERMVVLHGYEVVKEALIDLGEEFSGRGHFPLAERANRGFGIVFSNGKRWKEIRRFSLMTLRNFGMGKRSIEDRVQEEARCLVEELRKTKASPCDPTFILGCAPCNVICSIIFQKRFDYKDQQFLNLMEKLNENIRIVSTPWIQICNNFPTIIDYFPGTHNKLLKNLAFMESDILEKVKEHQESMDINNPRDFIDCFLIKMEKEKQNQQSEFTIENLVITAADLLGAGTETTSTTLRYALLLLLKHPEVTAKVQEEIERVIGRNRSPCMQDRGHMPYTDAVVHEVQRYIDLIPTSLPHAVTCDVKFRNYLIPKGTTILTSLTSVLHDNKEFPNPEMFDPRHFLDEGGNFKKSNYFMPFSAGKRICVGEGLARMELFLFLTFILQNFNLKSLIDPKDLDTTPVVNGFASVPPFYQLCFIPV
Chain of Cytochrome P450 2D6 (P10635 whole entry): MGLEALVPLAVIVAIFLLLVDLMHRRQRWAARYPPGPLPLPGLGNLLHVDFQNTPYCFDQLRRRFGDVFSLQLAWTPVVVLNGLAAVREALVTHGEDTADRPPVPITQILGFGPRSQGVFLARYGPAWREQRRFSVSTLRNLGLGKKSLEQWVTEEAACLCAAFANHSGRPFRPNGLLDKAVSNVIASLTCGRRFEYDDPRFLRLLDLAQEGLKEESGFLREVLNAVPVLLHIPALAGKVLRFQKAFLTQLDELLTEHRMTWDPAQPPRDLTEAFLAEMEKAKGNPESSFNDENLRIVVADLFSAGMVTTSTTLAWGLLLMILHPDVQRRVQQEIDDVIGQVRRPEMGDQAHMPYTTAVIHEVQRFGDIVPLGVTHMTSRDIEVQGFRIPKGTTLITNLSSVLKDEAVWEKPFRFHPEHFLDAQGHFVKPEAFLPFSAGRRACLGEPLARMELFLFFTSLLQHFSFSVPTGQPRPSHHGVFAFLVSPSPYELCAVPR
Chain of Cytochrome P450 2C9 (P11712 whole entry): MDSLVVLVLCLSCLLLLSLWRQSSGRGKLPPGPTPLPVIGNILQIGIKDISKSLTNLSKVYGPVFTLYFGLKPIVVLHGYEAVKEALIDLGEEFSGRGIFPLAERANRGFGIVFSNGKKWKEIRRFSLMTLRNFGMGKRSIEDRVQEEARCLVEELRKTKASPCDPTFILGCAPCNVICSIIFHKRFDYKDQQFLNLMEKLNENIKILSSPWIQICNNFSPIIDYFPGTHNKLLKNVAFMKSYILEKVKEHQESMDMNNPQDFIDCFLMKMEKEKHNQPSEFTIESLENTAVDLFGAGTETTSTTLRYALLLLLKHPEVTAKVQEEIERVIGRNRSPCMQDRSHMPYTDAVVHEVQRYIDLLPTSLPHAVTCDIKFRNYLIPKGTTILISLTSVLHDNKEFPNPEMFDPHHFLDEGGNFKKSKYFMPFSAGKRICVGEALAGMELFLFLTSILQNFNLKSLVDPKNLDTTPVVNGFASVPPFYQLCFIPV

EC50 [1]: > 195 µM (not active)
SMILES: Cc1ccc(OCC(O)CN2C(=O)NC(C)(C)C2=O)cc1C (configuration not stated)

AC50 [2]: 22.4 µM (inconclusive)
SMILES: Cc1ccnc(NCn2nnc3ccccc32)c1

SMILES: CC(C)C(=O)N1CCN(c2cc(N3CCN(C)CC3)c(F)cc2[N+](=O)[O-])CC1
EC50 [3]: 0.625 µM (active)
EC50 [4]: > 60 µM (not active)

AC50 [5]: inconclusive
SMILES: CN1C(=O)CC(NNC(=O)c2ccccc2)C1=O (configuration not stated)

SMILES: O=C(NC(=S)N(CCCCO)C1CCCCC1)c1sc2ccccc2c1Cl
EC50 [6]: 0.891 µM (active)
EC50 [7]: 7.75 µM (active)
AC50 [8]: 22.4 µM (inconclusive)

AC50 [5]: inconclusive
AC50 [8]: 39.8 µM (inconclusive)
SMILES: Cc1noc(C)c1-c1cncnc1N1CCN(C)CC1

AC50 ([5]; read-out: AC50): 39.8 µM (inconclusive)
SMILES: CCOC(=O)N1CCC(NC(=O)CS(=O)(=O)Cc2nc(-c3cccc(OC)c3)oc2C)CC1

AC50 ([5]; read-out: AC50): 1.78 µM (inconclusive)
AC50 [2]: 14.1 µM (inconclusive)
SMILES: Cc1c(Cl)c([N+](=O)[O-])nn1CC(=O)Nc1c(C)n(C)n(-c2ccccc2)c1=O

SMILES: CC(C)c1ccc(NC(=O)c2cc3c(=O)n(C)c4ccccc4c3n2C)cc1
EC50 [3]: 1.12 µM (active)
EC50 [4]: 16.2 µM (active)

EC50 [1]: > 195 µM (not active)
SMILES: COc1ccc(-n2c(-c3ccc(F)cc3)cnc2SCC(=O)NCc2ccco2)cc1

AC50 ([5]; read-out: AC50): 6.31 µM (inconclusive)
AC50 [2]: 1 µM (inconclusive)
SMILES: O=[N+]([O-])c1cccc(/C=N\Nc2ccc3ccccc3n2)c1O

AC50 [2]: 8.91 µM (inconclusive)
SMILES: COC(=O)c1ccccc1NC(=O)C1CCN(C(=O)c2ccc(OC)cc2)CC1

AC50 ([5]; read-out: AC50): 2.82 µM (inconclusive)
AC50 [8]: 3.98 µM (inconclusive)
SMILES: Cc1c(C(=O)Nc2nccs2)sc2nc(-c3cccs3)cc(C(F)(F)F)c12

EC50 [1]: > 195 µM (not active)
SMILES: Cc1ccc(/C=C/C(=O)Nc2ccc(O)c3c(=O)cc(-c4ccccc4Cl)oc23)cc1

AC50 [9]: 14.1 µM (inconclusive)
SMILES: Cn1c(OCc2ccc3c(c2)OCO3)nc2c1c(=O)n(Cc1ccc(Cl)c(Cl)c1)c(=O)n2C

AC50 ([5]; read-out: AC50): 3.16 µM (inconclusive)
AC50 [8]: 5.01 µM (inconclusive)
SMILES: C=CC[C@@H]1C=C[C@H](O/N=C2\c3cc(OC)ccc3O[C@H](c3cccc(OC)c3)[C@H]2O)[C@H](CO)O1

SMILES: C[N+]12CCC(CC1)[C@@H](OC(=O)C(O)(c1ccccc1)c1ccccc1)C2
AC50 [8]: 12.6 µM (inconclusive)

EC50 [1]: > 195 µM (not active)
SMILES: CCCCN(C(=O)COc1ccc(C)cc1OC)c1c(N)n(CCC)c(=O)[nH]c1=O

EC50 [1]: > 195 µM (not active)
SMILES: CN(CC(=O)NCc1cccnc1)S(=O)(=O)c1ccc2c(c1)c(=O)n(C)c(=O)n2C

AC50 [8]: 31.6 µM (inconclusive)
SMILES: COc1cccc(-c2ccc3ncnc(NCc4cnc(C)cn4)c3c2)c1

AC50 [2]: 25.1 µM (inconclusive)
SMILES: CC(=O)N1CCC2(CC1)CCN(c1ccc(-c3ccccc3)cc1)CC2

AC50 [2]: 0.0158 µM (inconclusive)
SMILES: COc1ccccc1CNc1ccnc(-c2ccccc2C(F)(F)F)n1

EC50 [1]: > 195 µM (not active)
SMILES: CCN(c1ccccc1)S(=O)(=O)c1ccc(Cl)c(C(=O)N(CC2CCCO2)C2CCS(=O)(=O)C2)c1 (configuration not stated)

SMILES: CCOc1ccc(-c2cc(C(=O)OC)nc3c2c(=O)n(C)c(=O)n3C)cc1
EC50 [6]: 0.063 µM (active)
EC50 [7]: 4.33 µM (active)

SMILES: COc1ccc(CCNCC(O)COc2cccc(C(C)=O)c2)cc1OC (configuration not stated)
EC50 [3]: 0.225 µM (active)
EC50 [4]: > 60 µM (not active)

AC50 ([5]; read-out: AC50): 35.5 µM (inconclusive)
SMILES: O=C1N=C(N2CCOCC2)S/C1=C\C=C/c1ccccc1

AC50 [2]: 20 µM (inconclusive)
SMILES: Cc1cc(C(F)(F)F)n2nc(-c3cnn(C)c3C(F)(F)F)c(Cl)c2n1

EC50 [1]: > 195 µM (not active)
SMILES: O=C(CS(=O)(=O)Cc1ccccc1)NCC1CCCO1 (configuration not stated)

SMILES: O=C(Cn1cnc2cc([N+](=O)[O-])ccc2c1=O)NC(=O)NCc1ccccc1
EC50 [3]: 0.223 µM (active)
EC50 [4]: > 60 µM (not active)

EC50 [1]: > 195 µM (not active)
SMILES: Cc1ccccc1OCC(=O)OCC(=O)c1ccc(-c2ccccc2)cc1

SMILES: FC(F)(F)c1cccc(NC(S)=NN=C(S)Nc2ccc(Cl)cc2)c1
EC50 [6]: 3.28 µM (active)
EC50 [7]: 5.47 µM (active)

EC50 [1]: > 195 µM (not active)
SMILES: CC1(C)Cc2nc3[nH]c(=S)n(-c4ccccc4)c(=O)c3cc2CO1

SMILES: COc1ccc(CCNC(=O)c2cc3c(=O)n4ccccc4nc3n(C3CCCCC3)c2=N)cc1
EC50 [3]: 2.17 µM (active)
EC50 [4]: > 60 µM (not active)

AC50 [2]: 0.126 µM (inconclusive)
SMILES: COC(=O)c1cc(NC(=O)/C=C/c2ccc3c(c2)OCO3)cc(C(=O)OC)c1

AC50 [8]: 15.8 µM (inconclusive)
SMILES: Cc1cc(N2CCOCC2)nc(SCc2ccc(Cl)cc2Cl)n1

AC50 [8]: 28.2 µM (inconclusive)
SMILES: CCC(C(=O)NC(C)(C)C)N(C(=O)Cn1nnc(-c2cccs2)n1)c1cnc2ccccc2c1 (configuration not stated)

EC50 [1]: > 195 µM (not active)
SMILES: COc1cccc(C(=O)CC(=O)C(=O)Nc2cc(OC)c(OC)c(OC)c2)c1

AC50 [2]: 0.0251 µM (inconclusive)
SMILES: CC1CC(OCC(O)CN2CCN(Cc3ccccc3)CC2)CC(C)(C)C1 (configuration not stated)

EC50 [1]: > 195 µM (not active)
SMILES: CCC(C)c1ccc(NC(=O)C2CC2)cc1 (configuration not stated)

AC50 ([5]; read-out: AC50): 15.8 µM (inconclusive)
AC50 [2]: 31.6 µM (inconclusive)
SMILES: O=C(c1cnccn1)N1CCC2(CC1)CN(Cc1ccccc1)C2

SMILES: COc1ccc(C(=O)Nc2ccc(S(=O)(=O)N3CCCC3)cc2)c(OC)c1
EC50 [3]: 11.1 µM (active)
EC50 [4]: > 60 µM (not active)

SMILES: Cc1ccc(N(Cc2ccco2)C(=O)c2ccc(N3CCCCC3)c([N+](=O)[O-])c2)cc1
EC50 [3]: 1.27 µM (active)
EC50 [4]: > 60 µM (not active)

SMILES: O=[N+]([O-])c1nn(-c2ccccc2)[n+]([O-])c1N1CCN(c2ccccc2)CC1
EC50 [3]: 0.483 µM (active)
EC50 [4]: > 60 µM (not active)

AC50 [2]: 3.16 µM (inconclusive)
SMILES: Cc1ccc(C)c(NC(=O)C2C3CCCC2C3c2ccccc2)c1 (configuration not stated)

SMILES: Nc1ccccc1Nc1cc(-c2ccccc2)nn1-c1ccccc1
EC50 [3]: 7.72 µM (active)
EC50 [4]: > 60 µM (inconclusive)

AC50 [8]: 0.891 µM (inconclusive)
SMILES: Cc1nn(-c2ccccc2)c2c1C(=O)N(Cc1ccccc1)C(=O)C(C)(C)C2

SMILES: Clc1ccc(SCCN2CCNCC2)cc1
EC50 [3]: 0.511 µM (active)
EC50 [4]: 9.8 µM (active)

SMILES: O=c1c2ccccc2ncn1-c1ccc([N+](=O)[O-])cc1[N+](=O)[O-]
EC50 [3]: 0.524 µM (active)
EC50 [4]: > 60 µM (not active)

EC50 [1]: > 195 µM (not active)
SMILES: Cc1cc(C)c2nc(O)c(C(c3nnnn3CC3CCCO3)N3CCC(C)CC3)cc2c1 (configuration not stated)

EC50 [1]: > 195 µM (not active)
SMILES: CC(C)(C)OC(=O)N[C@@H](Cc1ccccc1)C(=O)NC[C@H]1CC[C@H](C(=O)N[C@@H](CC(=O)O)C(=O)O)CC1

AC50 [2]: 20 µM (inconclusive)
SMILES: CSc1nc(C)c(CCOC(=O)c2ccccc2)c(O)n1

AC50 [2]: 0.112 µM (inconclusive)
SMILES: CCCNC(=O)c1c(C)cc(=O)oc1C

AC50 [2]: 20 µM (inconclusive)
SMILES: Cc1cc(C)cc(NC(=O)N2CCCC2C(=O)Nc2ccc(-n3cnnn3)c(C)c2)c1 (configuration not stated)

EC50 [1]: > 195 µM (not active)
SMILES: C=CCN1C(=O)C(Cc2ccc(OC)cc2)S/C1=N/N=C/c1ccco1 (configuration not stated)

SMILES: C/C(=N\Nc1nc2ccccc2[nH]1)c1ccc2c(c1)OCCO2
EC50 [3]: 1.89 µM (active)
EC50 [4]: > 60 µM (not active)

SMILES: N=C(N)N/N=C/c1cccc(Cl)c1Cl
EC50 [3]: 0.435 µM (active)
EC50 [4]: > 60 µM (not active)

SMILES: CCOC(=O)c1cc2c(=O)n3ccccc3nc2n(C(C)C)/c1=N/C(=O)c1c(-c2ccccc2Cl)noc1C
EC50 [3]: 2.4 µM (active)
EC50 [4]: > 30 µM (not active)

EC50 [1]: > 195 µM (not active)
SMILES: Cc1nn2c(=O)c(Cl)c(C)[nH]c2c1-c1ccccc1

SMILES: Cc1c2c(n3c(nc4ccccc43)c1C#N)N(CCN(C)C)CC2
EC50 [3]: 0.117 µM (active)
EC50 [4]: 20.6 µM (active)

SMILES: Cc1cccc(C)c1OC[C@H](C)N [(S)-MEXILETINE]
AC50 [8]: 7.94 µM (inconclusive) and 39.8 µM (inconclusive)

AC50 ([5]; read-out: AC50): 25.1 µM (inconclusive)
AC50 [8]: 31.6 µM (inconclusive)
SMILES: CN(C)c1cc2c(Nc3ccc4c(cnn4Cc4ccccc4)c3)ncnc2cn1 [GW282974X]
